Experiments:
db/db mice [1] = assay: Glucose and lipid metabolism in db/db mice, 56 d administration; assay type: in vivo; conditions: TMP 5.0 mg/kg, OLB-3 13.32 mg/kg, mean±SEM, n=6
Method: (§1) Mice of a normal control group (WT) and model mice were given normal saline 10 ml/kg/d, Losartan 15 mg/kg/d, TMP (5.0 mg/kg, 0.037 mmol/kg), and OLB-3 (13.32 mg/kg, 0.037 mmol/kg), at a volume of 10 mL/kg, once/d, for continuous administration of 56 d, blood lipids and blood glucose related indexes were measured after blood collection. Data were presented as mean±SEM; n=6 per group.

db/db mice [2] = assay: Biochemical and metabolic indicators in db/db mice, 56 d administration; assay type: in vivo; conditions: Losartan 15 mg/kg/d, TMP 5.0 mg/kg, OLB-3 13.32 mg/kg, n=6; for Urine albumin/creatinine: once/d for 56 d, mean, SEM
SH-SY5Y cells = assay: MTT assay of SH-SY5Y cell death caused by OGD; assay type: cell-based; conditions: 4 h OGD, FIG. 1
Method: A neuroprotective effect of tetramethylpyrazine (TMP) and derivatives thereof was evaluated by MTT assay. Cells were incubated, cells in the logarithmic growth phase were collected, a concentration of a cell suspension was adjusted, an MTT-containing medium was added after dosing treatment and 4 h of incubation with OGD, incubation was conducted for 4 h, the medium in the wells was carefully removed, and 150 μl of dimethyl sulfoxide (DMSO) was added to each well, followed by shaking at a low speed for 10 min on a shaker to fully dissolve crystals, and an absorbance value of each well was measured at an OD (absorbance) value of 490 nm of an enzyme-linked immunosorbent assay instrument (at the same time, a zero adjustment well (medium, MTT, DMSO) and a control well (cells, a drug dissolution medium with the same concentration, medium, MTT, DMSO) were set). Data were presented as mean±SEM; n=8 per group.

[3] = system: SH-SY5Y neuroblastoma cells; assay: LPS-induced inflammatory factors in differentiated SH-SY5Y cells (ELISA); assay type: cell-based; conditions: 24 h, mean±SEM, n=8; for TNF-alpha: supernatant
Method: (§2) The SH-SY5Y cells were recovered and incubated, and the cells in the logarithmic growth phase were taken. After 24 h of incubation, SH-SY5Y neuroblastoma cells were treated with 1 μM all-trans retinoic acid to induce differentiation, and then inoculated into a 6-well culture dish for 24 h of incubation. Then, 0.2 μM (L) or 1 μM (H) OLB-3 and 1 μg/mL LPS were added to the medium, and treated for 24 h, a supernatant medium was aspirated, and changes of inflammatory factors and oxidative stress-related proteins were measured by an ELISA kit. Data were presented as mean±SEM; n=8 per group.

[4] = system: SH-SY5Y neuroblastoma cells; assay: LPS-induced oxidative stress-related proteins in differentiated SH-SY5Y cells (ELISA); assay type: cell-based; conditions: 24 h, mean±SEM, n=8
Method: as §2

db/db mice [5] = assay: Urinary protein level in db/db mice; assay type: in vivo; conditions: OLB-3 13.32 mg/kg once/d for 56 d, FIG. 2
Method: as §1, with “10” for “15”, “m/kg,” for “mL/kg,”, “urine protein levels” for “blood lipids and blood glucose related indexes”, “urine” for “blood”

5*FAD mice [6] = assay: Novel object recognition in 5*FAD mice; assay type: in vivo; conditions: 6-month-old 5*FAD mice treated 3 months; 2.63 and 13.32 mg/kg; FIG. 3
Method: (§3) 6-month-old 5*FAD mice were treated with OLB-3 for 3 months, and novel object recognition and Y-maze behavior were measured. Novel object recognition: during a training phase, the mice were exposed in a chamber to become familiar with two identical objects (A+A) for 5 min; during a testing phase, one of the familiar objects was replaced with another novel object (A+B), and the mice were put back in the chamber to detect probe objects for 5 min, while recording video and tracking the mice in real time. Probing was defined as a mouse with its nose pointed towards the object, sniffing or touching with its nose, and a distance of ≤2 cm was recorded from the nose to the object. A discriminant index (DI) is used to explore each object, and a calculation method thereof was as follows: (exploration time for new object−exploration time for old object)/(exploration time for new object+exploration time for old object)*100. Y-maze: an animal was placed at an end of one arm, and the sequence of the animals entering into each arm was recorded within 10 min. […] The 5*FAD mice were treated with low dosage (2.63 mg/kg, 0.007 mmol/kg, the same below) and high dosage (13.32 mg/kg, 0.037 mmol/kg, the same below) of the OLB-3 separately. Data were presented as mean±SEM; n=9-10 per group.

5*FAD mice [7] = assay: Y-maze in 5*FAD mice; assay type: in vivo; conditions: 6-month-old 5*FAD mice treated 3 months; 2.63 and 13.32 mg/kg; FIG. 4
Method: as §3

[8] = system: 6-OHDA Parkinson's disease rats; assay: APO-induced rotations in 6-OHDA Parkinson's disease rats; assay type: in vivo; conditions: APO-induced 6-OHDA rats, 2 weeks of treatment; levodopa 25 mg/kg; FIG. 5
Source text: There was no rotations in a sham-operated group, and there was no significant difference between the groups injected with 6-OHDA, with about 180 rotations. […] Data were presented as mean±SEM; n=10 per group.

ALS (SOD-G93A) mice [9] = assay: Pole climbing test in ALS transgenic mice; assay type: in vivo; conditions: riluzole 5 mg/kg, FIG. 6
Source text: The pole climbing test is generally used to evaluate a movement coordination ability, movement delay of the limbs in mice, and muscle strength. A homemade wooden pole about 50 cm long and about 1 cm in diameter was wrapped with medical gauze to increase friction of the wooden pole. The wooden pole was put vertically on a horizontal table, the mouse tail was grabbed such that the mouse head was facing down, with limbs grabbing a top of the pole; the timer was started after releasing the mouse tail, and it was ensured that the mouse crawled downward without external force, and the time was recorded for the mouse to climb from the top of the pole to a bottom platform (a standard was that mouse hind limbs were landed on the ground). […] The average value of the mouse's three pole climbing times was calculated as the final pole climbing time. […] Data were presented as mean±SEM; n=10 per group.

ALS (SOD-G93A) mice [10] = assay: Limb grip force test in ALS transgenic mice; assay type: in vivo; conditions: riluzole 5 mg/kg, FIG. 7
Method: The limb grip force test is used directly to assess muscle strength of mice and the incidence of mice. […] After the start of administration, the grip force of the mice was tested every two weeks, and the measurement was repeated three times for each mouse, and the maximum value among the three results was taken as a maximum grip force of the mice. […] Data were presented as mean±SEM; n=10 per group.

[11] = Table 3, once/d for 56 d, Losartan 15 mg/kg/d
[12] = once/d for 56 d, Losartan 15 mg/kg/d
[13] = (H) high concentration (OLB-3 1 μM) + 1 μg/mL LPS
[14] = (L) low concentration (OLB-3 0.2 μM) + 1 μg/mL LPS

In the case of `CCCCc1nc(Cl)c(CO)n1Cc1ccc(-c2ccccc2-c2nn[nH]n2)cc1` [Losartan, reference compound], the Creatinine (db/db mice [1]; [11]) is reported as 42.12 ± 1.72(c) μmol/L, the Total cholesterol (db/db mice [1]; [12]) is reported as 6.76 ± 0.46(c) mM and the Creatinine (db/db mice [2]; Table 4, once/d for 56 d) is reported as 42.12 ± 1.72(c) μmol/L. For the same compound, the Urine albumin/creatinine (db/db mice [2]) was 582.74 ± 97.82(c) mg/g.
For `Cc1nc(C)c(C(=O)OCOC(=O)OCCc2ccc(O)cc2)nc1C` [OLB-3], the “death of SH-SY5Y cells caused by OGD (MTT)” value (SH-SY5Y cells) was “significantly reduce the death of SH-SY5Y cells caused by OGD”, the TNF-alpha [3, 13] was 4.19 ± 0.77(c) pg/ml and the IL1 [3, 13] was 4.27 ± 0.58(c) pg/ml. The IL6 [3, 13] was 5.13 ± 0.63(c) pg/ml, the TNF-alpha [3, 14] was 7.34 ± 1.38(c) pg/ml and the IL1 [3, 14] was 8.76 ± 1.56(c) pg/ml. The IL6 [3, 14] was 9.34 ± 1.67(b) pg/ml, the GSH-Px [4, 13] was 17.51 ± 1.17(c) umol/mg and the MDA [4, 13] was 6.71 ± 0.51(c) nmol/mg. The SOD [4, 13] was 18.27 ± 1.02(c) nU/ml, the GSH-Px [4, 14] was 13.21 ± 1.92(c) umol/mg and the MDA [4, 14] was 11.10 ± 0.78(c) nmol/mg. The SOD [4, 14] was 14.96 ± 1.32(c) nU/ml, the Creatinine (db/db mice [1]; [11]) was 42.42 ± 2.73(c) μmol/L and the Urea (db/db mice [1]; [11]) was 7.42 ± 0.31(c) mmol/L. For the same compound, the Total cholesterol (db/db mice [1]; [12]) was 4.15 ± 0.18(c) mM, the Triglyceride (db/db mice [1]; [12]) was 9.61 ± 0.57(c) mg/dL and the Glucose determination (db/db mice [1]; once/d for 56 d) was 17.26 ± 1.42(c) mM. For the same compound, the Glycated hemoglobin (db/db mice [1]; once/d for 56 d) was 517.83 ± 47.26(c) nmol/L, the High-density lipoprotein cholesterol (db/db mice [1]; once/d for 56 d) was 1.62 ± 0.11(c) mM and the Low-density lipoprotein cholesterol (db/db mice [1]; once/d for 56 d) was 0.52 ± 0.02(c) mM. For the same compound, the Creatinine (db/db mice [2]; Table 4, once/d for 56 d) was 42.42 ± 2.73(c) μmol/L, the Urea (db/db mice [2]; Table 4, once/d for 56 d) was 7.42 ± 0.31(c) mmol/L and the Urine albumin/creatinine (db/db mice [2]) was 443.82 ± 78.34(c) mg/g. The urinary protein levels (db/db mice [5]) was “significantly reduced urinary protein levels”, the “time ratio to explore novel objects” value (5*FAD mice [6]) was “significantly increase a time ratio to explore novel objects” and the “time ratio in a novel different arm” value (5*FAD mice [7]) was “significantly increase a time ratio in a novel different arm”. For the same compound, the number of rotations [8] was “effectively reduce the number of rotations”, the “pole climbing time / bradykinesia” value (ALS (SOD-G93A) mice [9]) was “significantly improve the symptoms of bradykinesia” and the limb grip force (ALS (SOD-G93A) mice [10]) was “effectively increase the limb force of mice”.
`Cc1nc(C)c(C)nc1C` [TMP, Tetramethylpyrazine, reference compound] showed a Urine albumin/creatinine (db/db mice [2]) of 661.82 ± 89.54 mg/g.
With `CN(C)C(=N)N=C(N)N` [metformin, reference compound] the Glycated hemoglobin (db/db mice [1]; once/d for 56 d) was 628.52 ± 50.59(c) nmol/L, the High-density lipoprotein cholesterol (db/db mice [1]; once/d for 56 d) was 2.19 ± 0.12(a) mM and the Low-density lipoprotein cholesterol (db/db mice [1]; once/d for 56 d) was 0.59 ± 0.02(c) mM.
In the case of `Nc1nc2ccc(OC(F)(F)F)cc2s1` [riluzole, reference compound], the “pole climbing time / bradykinesia” value (ALS (SOD-G93A) mice [9]) is reported as “significantly improve the symptoms of bradykinesia” and the limb grip force (ALS (SOD-G93A) mice [10]) is reported as “effectively increase the limb force of mice”.

— patent US20230391732A1, “MULTI-EFFICACY PYRAZINE COMPOUND, PREPARATION METHOD AND USE THEREOF” (SHENZHEN OLIVE BIOPHARMACEUTICALS CO., LTD, priority 2020, published 2023)
